Tests used:
[1] = molecular target: T1, Branched-chain alpha-ketoacid dehydrogenase kinase (Homo sapiens, UniProt O14874); assay: Inhibition of human recombinant BCKDK incubated for 60 mins in presence of ATP by ADP-Glo reagent based luminescent assay
[2] = molecular target: T1, Branched-chain alpha-ketoacid dehydrogenase kinase; assay: Inhibition of human recombinant BCKDK at >100 uM incubated for 60 mins in presence of ATP by ADP-Glo reagent based luminescent assay relative to control
[3] = molecular target: T2, [Pyruvate dehydrogenase (acetyl-transferring)] kinase isozyme 4, mitochondrial (Homo sapiens, UniProt Q16654); assay: (§1) Inhibition of human recombinant PDHK4 co-complexed with porcine PDH using sodium pyruvate, coenzymeA and NAD as substrates preincubated with enzyme complex for 45 mins followed by substrates addition and further incubated for 90 mins in presence of ATP at Km concentration by spectrophotometric assay
Target sequence in this assay (Q16654 whole entry): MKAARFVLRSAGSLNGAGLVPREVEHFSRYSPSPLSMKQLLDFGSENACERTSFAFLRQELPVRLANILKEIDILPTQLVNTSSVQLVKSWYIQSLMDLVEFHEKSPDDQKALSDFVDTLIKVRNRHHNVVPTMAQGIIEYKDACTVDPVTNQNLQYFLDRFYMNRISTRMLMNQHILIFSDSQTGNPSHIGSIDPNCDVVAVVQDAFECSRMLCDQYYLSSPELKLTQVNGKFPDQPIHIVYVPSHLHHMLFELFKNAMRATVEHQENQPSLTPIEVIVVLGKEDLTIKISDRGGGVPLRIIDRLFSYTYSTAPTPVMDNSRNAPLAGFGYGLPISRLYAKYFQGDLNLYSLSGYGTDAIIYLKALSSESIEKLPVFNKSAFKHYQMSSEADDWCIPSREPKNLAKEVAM

[4] = molecular target: [Pyruvate dehydrogenase (acetyl-transferring)] kinase isozyme 2, mitochondrial (Homo sapiens, UniProt Q15119); assay: Inhibition of human recombinant PDHK2 co-complexed with porcine PDH using sodium pyruvate, coenzymeA and NAD as substrates preincubated with enzyme complex for 45 mins followed by substrates addition and further incubated for 90 mins in presence of ATP at Km concentration by spectrophotometric assay
[5] = molecular target: T2, [Pyruvate dehydrogenase (acetyl-transferring)] kinase isozyme 4, mitochondrial; assay: as §1, with “porcine PDH at 30 uM using sodium” for “porcine PDH using sodium”, “spectrophotometric assay relative to control” for “spectrophotometric assay”; conditions: time 135.0 min
Target sequence in this assay (Q16654 whole entry, looked up): as the sequence (Q16654 whole entry) above

[6] = molecular target: [Pyruvate dehydrogenase (acetyl-transferring)] kinase isozyme 1, mitochondrial (Homo sapiens, UniProt Q15118); assay: Inhibition of human recombinant PDHK1 co-complexed with porcine PDH using sodium pyruvate, coenzymeA and NAD as substrates preincubated with enzyme complex for 45 mins followed by substrates addition and further incubated for 90 mins by spectrophotometric assay
Sequence of [Pyruvate dehydrogenase (acetyl-transferring)] kinase isozyme 1, mitochondrial (Q15118 whole entry): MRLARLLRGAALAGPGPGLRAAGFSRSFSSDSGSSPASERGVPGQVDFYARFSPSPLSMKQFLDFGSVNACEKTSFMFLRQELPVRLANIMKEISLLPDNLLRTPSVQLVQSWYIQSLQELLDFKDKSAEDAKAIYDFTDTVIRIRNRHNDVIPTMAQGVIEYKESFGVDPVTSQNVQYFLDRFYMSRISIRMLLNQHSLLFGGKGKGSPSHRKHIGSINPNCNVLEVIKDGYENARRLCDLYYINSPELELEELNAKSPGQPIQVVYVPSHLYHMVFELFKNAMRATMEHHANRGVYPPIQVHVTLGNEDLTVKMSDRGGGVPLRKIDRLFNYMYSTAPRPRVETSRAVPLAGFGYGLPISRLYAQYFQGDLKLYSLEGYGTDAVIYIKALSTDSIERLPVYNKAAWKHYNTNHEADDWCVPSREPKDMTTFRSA

| IC50 [1] | inhibition [2] | IC50 [3] | IC50 [4] | inhibition [5] | IC50 [6] | Compound |
| --- | --- | --- | --- | --- | --- | --- |
| > 100000 nM | 3% | 24.1 nM | 4.2 nM | – | – | Cc1nc2[nH]c3c(C4CC4)cccc3c2cc1-c1nnc(C(NC(=O)CCc2ccccc2)C(C)C)o1 (stereo not drawn) |
| – | – | 12.2 nM | 5.1 nM | – | – | Cc1nc(N2C[C@@H](c3ccc(C(=O)O)[nH]3)C[C@H]2CO)c2c(n1)[nH]c1c(C3CC3)cccc12 |
| – | – | 260 nM | 4.5 nM | – | – | Cc1nc(N2C[C@@](Cc3ccccc3)(C(N)=O)C[C@H]2CO)c2c(n1)[nH]c1c(C3CC3)cccc12 |
| – | – | 2980 nM | 1510 nM | – | – | Cc1nc2[nH]c3c(C4CC4)cccc3c2cc1-c1ccccn1 |
| > 100000 nM | 18% | 32.9 nM | 6 nM | – | – | Cc1nc2[nH]c3c(C4CC4)cccc3c2cc1-c1nnc(C(CC(=O)NCc2ccccc2)C(C)C)o1 (stereo not drawn) |
| – | – | 350 nM | 35 nM | – | – | Cc1cnc(Cl)nc1-c1ccc(N(Cc2ccccc2)C(=O)c2ccc(O)cc2O)cc1 |
| – | – | 11900 nM | 2030 nM | – | – | Cc1ccc2c(n1)[nH]c1c(C3CC3)cccc12 |
| – | – | 1120 nM | 73 nM | – | – | Cc1nc(N2C[C@H](Cc3ccccc3)C[C@H]2CO)c2c(n1)[nH]c1c(C3CC3)cccc12 |
| – | – | 17.8 nM | 5.5 nM | – | – | Cc1nc(N2C[C@@H](c3ccc(C(N)=O)[nH]3)C[C@H]2CO)c2c(n1)[nH]c1c(C3CC3)cccc12 |
| – | – | 61.5 nM | 17.1 nM | – | – | Cc1nc2[nH]c3c(C4CC4)cccc3c2cc1-c1nnc([C@@H](CC(=O)N[C@H](C)c2ccccc2)C(C)C)o1 |
| – | – | > 30000 nM | 8520 nM | 21% | – | Cc1nc(N2CCC[C@@H]2CO)c2c(n1)[nH]c1c(C3CC3)cccc12 |
| – | – | 40.6 nM | 9.2 nM | – | – | CC[C@@H]1C[C@H](c2ccc(C(=O)O)[nH]2)CN1c1nc(C)nc2[nH]c3c(C4CC4)cccc3c12 |
| – | – | 592 nM | 130 nM | – | – | Cc1nc2[nH]c3c(C4CC4)cccc3c2cc1-c1nnc(C(C)C)o1 |
| – | – | 292 nM | 14.6 nM | – | – | Cc1nc(N2C[C@](CO)(Cc3ccccc3)C[C@H]2CO)c2c(n1)[nH]c1c(C3CC3)cccc12 |
| – | – | 7490 nM | 5330 nM | – | – | Cc1nc2[nH]c3c(C4CC4)cccc3c2cc1-c1ccccc1 |
| – | – | 1510 nM | 490 nM | – | – | Cc1nnc(-c2cc3c(nc2C)[nH]c2c(C4CC4)cccc23)o1 |
| – | – | 494 nM | 87 nM | – | – | Cc1nc2[nH]c3c(C4CC4)cccc3c2cc1-c1nnc(C(C)C(C)C)o1 (stereo not drawn) |
| – | – | 7700 nM | 1010 nM | – | – | Cc1nc(N2C[C@H](c3ccccc3)C[C@H]2CO)c2c(n1)[nH]c1c(C3CC3)cccc12 |
| – | – | 462 nM | 56 nM | – | – | Cc1nc2[nH]c3c(C4CC4)cccc3c2cc1-c1nnc(CC(C)C)o1 |
| – | – | > 30000 nM | 5510 nM | 35% | – | CNC(=O)c1cc2c(nc1C)[nH]c1c(C3CC3)cccc12 |
| – | – | 10300 nM | 2410 nM | – | – | Cc1nc(N2CCCC2)c2c(n1)[nH]c1c(C3CC3)cccc12 |
| – | – | 2120 nM | 190 nM | – | – | CCc1nnc(-c2cc3c(nc2C)[nH]c2c(C4CC4)cccc23)o1 |
| > 300000 nM | – | – | 710 nM | – | 5870 nM | Cc1ncc2c(n1)[nH]c1c(C3CC3)cccc12 |
| – | – | 4530 nM | 352 nM | – | – | Cc1nc(N2CCC[C@H]2CO)c2c(n1)[nH]c1c(C3CC3)cccc12 |
| – | – | 6620 nM | 1490 nM | – | – | CCc1nnc(-c2cc3c(nc2C)[nH]c2c(C4CC4)cccc23)s1 |
| – | – | 8460 nM | 758 nM | – | – | CCC1CCCN1c1nc(C)nc2[nH]c3c(C4CC4)cccc3c12 (stereo not drawn) |
| – | – | 1540 nM | 210 nM | – | – | COC(=O)c1cc2c(nc1C)[nH]c1c(C3CC3)cccc12 |
| – | – | 292 nM | 91 nM | – | – | CCCc1nnc(-c2cc3c(nc2C)[nH]c2c(C4CC4)cccc23)o1 |
